Results published in patent publication US7105531B2, “Tricyclic protein kinase inhibitors” (WYETH, priority 1999, dated 2006).
Values joined by “and” are separate entries in the source; they are usually repeats but may differ in a detail not shown here. Equal entries are not always repeated. Each block holds one compound with its values, some of them ahead of it.

Experiments:
[1] = target: T1, Rat2 fibroblasts transformed with v-Src/Hu c-Src fusion gene (Homo sapiens, UniProt P12931, cells depend on it, form not given); test: Anchorage independent Src-transformed fibroblast proliferation test procedure; format: cell-based, rat; details: for GI50: rat2 fibroblasts transformed with v-src/hu c-src fusion gene, read-out: Src TF prolif IC50
T1 construct: fused on or other part: The v-Src frame of Rous sarcoma virus: everything outside the catalytic domain, namely the N-terminal unique/SH3/SH2 part; Candidates are Prague C (P00526), then Schmidt-Ruppin A (P00524)
T1 sequence (P12931 whole entry, change not shown, the tested form may be a part): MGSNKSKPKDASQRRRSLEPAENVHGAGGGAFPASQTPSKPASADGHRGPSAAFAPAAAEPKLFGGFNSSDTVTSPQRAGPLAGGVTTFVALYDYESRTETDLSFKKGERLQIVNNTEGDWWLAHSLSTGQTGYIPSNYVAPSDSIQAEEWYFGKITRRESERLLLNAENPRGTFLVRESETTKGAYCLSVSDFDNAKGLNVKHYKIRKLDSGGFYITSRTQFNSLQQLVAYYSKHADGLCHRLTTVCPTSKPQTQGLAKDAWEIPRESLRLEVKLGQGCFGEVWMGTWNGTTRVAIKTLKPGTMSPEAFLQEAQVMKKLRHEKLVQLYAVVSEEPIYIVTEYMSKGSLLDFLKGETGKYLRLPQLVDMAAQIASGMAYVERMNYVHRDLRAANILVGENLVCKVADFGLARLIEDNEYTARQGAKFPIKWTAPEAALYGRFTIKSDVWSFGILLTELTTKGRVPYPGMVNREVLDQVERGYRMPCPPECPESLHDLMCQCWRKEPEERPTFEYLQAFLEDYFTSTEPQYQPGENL
Excerpt: Anchorage Independent Src-transformed Fibroblast Proliferation Test Procedure: Rat2 fibroblasts stably transformed with a plasmid containing CMV promotor controlled v-Src/Hu c-Src fusion gene in which the catalytic domain of human c-Src is inserted in place of the v-Src catalytic domain in the v-Src gene are used for the measurement of src dependent suspension growth.

[2] = target: T2, recombinant human MEK 1 (MAPKK) and recombinant human ERK2 (MAPK) (Homo sapiens, UniProt P28482+Q02750); test: Mitogen Activated Protein Kinase (MAPK) coupled Mek-Erk test procedure; format: biochemical
T2 construct: GST
Experimental: To evaluate inhibitors of the MAP (mitogen activated protein) kinase a two component coupled standard pharmacological test procedure, which measures phosphorylation of a serine/threonine residue in an appropriate sequence in the substrate in the presence and absence of a putative inhibitor, is used. Recombinant human MEK 1 (MAPKK) is first used to activate recombinant human ERK2 (MAPK) and the activated MAPK (ERK) is incubated with substrate (myelin basic protein peptide (MBPP) or Myc peptide) in the presence of ATP, Mg^+2 and radiolabeled ^33P ATP. The phosphorylated peptide is captured on a P 81 phosphocellulose filter (paper filter or embedded in microtiter plate) washed and counted by scintillation methods.
The peptide substrates used in the assay are MBPP, peptide substrate ([…]), or synthetic Myc substrate, ([…].5 TFA). The recombinant enzymes used are prepared as GST fusion proteins of human ERK 2 and human MEK 1. Inhibitor samples are prepared as 10× stocks in 10% DMSO and an appropriate aliquot is used to deliver either 10 ug/ml for a single point screening dose or 100 to 0.0001 uM final concentration for a dose response curve. Final DMSO concentrations are less than or equal to 1%.
The reaction is run as follows in 50 mM Tris kinase buffer, pH 7.4 in a reaction volume of 50 ul. The appropriate volume of kinase buffer and inhibitor sample is added to the tube. Appropriate dilution of enzyme is delivered to give 2–5 ug recombinant MAPK (Erk) per tube. The inhibitor is incubated with MAPK (Erk) for 30 min at 0 deg. C. Recombinant Mek (MAPKK) (0.5–2.5 ug) or fully activated Mek (0.05–0.1 units) is added to activate the Erk and incubated for 30 min at 30° C. Then substrate and γ^33P ATP are added to give a final concentration of 0.5–1 mM MBPP or 250–500 uM Myc; 0.2–0.5 uCi gamma P 33 ATP/tube; 50 μM ATP final concentration. Samples are incubated at 30° C. for 30 minutes and the reaction is stopped by adding 25 μl of ice cold 10% trichloroacetic acid (TCA). After samples are chilled on ice for 30 min. 20 μl of sample is transferred onto P 81 phosphocellulose filter. Filter papers are washed 2 times with a large volume of 1% acetic acid, then 2 times with water. The filters are briefly air dried before addition of scintillant and samples are counted in the appropriate scintillation counter set up for reading ^33P isotope. Samples include a positive control (activated enzyme plus substrate); a no enzyme control; a no substrate control; samples with different concentrations of putative inhibitor, and samples with reference inhibitors (other active compounds or non-specific inhibitors such as staurosporine or K252 B).
The raw data is captured as cpm. Sample replicates are averaged and corrected for background count. Mean cpm data is tabulated by group and % inhibition by a test compound is calculated as (corrected cpm control−corrected. cpm sample/control)×100=% inhibition).

GI50 [1]: 128 nM | melting point: 197 to 205 °C
SMILES: COc1cc(Nc2c(C#N)cnc3cc4cc(OCCN5CCN(C)CC5)c(OC)cc4cc23)c(Cl)cc1F [Example 211, 4-(2-Chloro-4-fluoro-5-methoxyanilino)-7-methoxy-8-[2-(4-methyl-1-piperazinyl)ethoxy]benzo[g]quinoline-3-carbonitrile]

GI50 [1]: > 10000 nM | melting point: 205 to 210 °C
SMILES: COc1cc2cc3ncc(C#N)c(Nc4ccc(F)c(Cl)c4)c3cc2cc1OCCN1CCOCC1 [Example 212, 4-(3-Chloro-4-fluoroanilino)-8-methoxy-7-[2-(4-morpholinyl)ethoxy]benzo[g]quinoline-3-carbonitrile]

GI50 [1]: > 10000 nM | melting point: 168 to 170 °C
SMILES: CCOc1cc2cc3c(Nc4cc(OC)c(Cl)cc4C)c(C#N)cnc3cc2cc1OCCN(CC(N)=O)CC(N)=O [Example 194, 2-(Carbamoylmethyl-{2-[4-(4-chloro-5-methoxy-2-methylphenylamino)-3-cyano-7-ethoxybenzo[g]quinolin-8-yloxy]-ethyl}-amino)-acetamide]

GI50 [1]: 68 nM | melting point: 218 to 235 °C and 220 to 227 °C
SMILES: COc1cc(Nc2c(C#N)cnc3cc4cc(OC)c(OCCN5CCN(C)CC5)cc4cc23)c(Cl)cc1C [Example 202, 4-(2-Chloro-5-methoxy-4-methylanilino)-8-methoxy-7-[2-(4-methyl 1-piperazinyl)ethoxy]benzo[g]quinoline-3-carbonitrile]

GI50 [1]: 309 nM | melting point: 204 to 214 °C
SMILES: COc1cc(Nc2c(C#N)cnc3cc4cc(OC)c(OCCN5CCOCC5)cc4cc23)c(Cl)cc1F [Example 209, 4-(2-Chloro-4-fluoro-5-methoxyanilino)-8-methoxy-7-[2-(4-morpholinyl)ethoxy]benzo[g]quinoline-3-carbonitrile]

GI50 [1]: 175 nM | melting point: 170 to 173 °C
SMILES: COc1cc(Nc2c(C#N)cnc3cc4cc(OC)c(OCCN5CCN(C)CC5)cc4cc23)c(Cl)cc1F [Example 201, 4-(2-Chloro-4-fluoro-5-methoxyanilino)-8-methoxy-7-[2-(4-methyl-1-piperazinyl)ethoxy]benzo[g]quinoline-3-carbonitrile]

GI50 [1]: 929 nM | melting point: 205 to 235 °C
SMILES: COc1cc(Nc2c(C#N)cnc3cc4cc(OC)c(OCCN5CCC(O)CC5)cc4cc23)c(Cl)cc1C [Example 207, 4-(2-Chloro-5-methoxy-4-methylanilino)-8-methoxy-7-[2-(4-hydroxy-1-piperidinyl)ethoxy]benzo[g]quinoline-3-carbonitrile]

Further lines, the compound ahead of its results:

SMILES: COc1cc(Nc2c(C#N)cnc3cc4cc(OCCN5CCOCC5)c(OC)cc4cc23)c(Cl)cc1Cl [Example 129, 4-(2,4-dichloro-5-methoxyanilino)-7-methoxy-8-[2-(4-morpholinyl)ethoxy]benzo[g]quinoline-3-carbonitrile]
GI50 [1]: 15 nM

SMILES: N#Cc1cnc2c(c1Nc1ccc(Cl)cc1Br)C=C1N=CN=C1C2 [Example 38, 8-(2-Bromo-4-chlorophenylamino)imidazo[4,5-g]quinoline-7-carbonitrile]
Mek-Erk IC50 [2]: 1300 nM | Src TF prolif % Inh ([1]; @ dose 10 μM): 0% | melting point: 244 to 246 °C

SMILES: COc1cc(Nc2c(C#N)cnc3cc4c(cc23)ncn4CCN2CCOCC2)c(C)cc1Cl [Example 57, 8-(4-Chloro-5-methoxy-2-methylanilino)-3-[2-(4-morpholinyl)ethyl]-3H-imidazo[4,5-g]quinoline-7-carbonitrile]
Src TF prolif % Inh ([1]; @ dose 10 μM): 0% | melting point: 246 to 248 °C

SMILES: CCOc1cc2cc3c(Nc4cc(OC)c(Cl)cc4C)c(C#N)cnc3cc2cc1OCCN1CCOCC1 [Example 191, 4-(4-Chloro-5-methoxy-2-methylanilino)-7-ethoxy-8-[2-(4-morpholinyl)ethoxy]benzo[g]quinoline-3-carbonitrile]
GI50 [1]: 22 nM | melting point: 201 to 203 °C

SMILES: CCOc1cc2cc3ncc(C#N)c(Nc4cc(OC)c(Cl)cc4C)c3cc2cc1OCCN1CCOCC1 [Example 190, 4-(4-Chloro-5-methoxy-2-methylanilino)-8-ethoxy-7-[2-(4-morpholinyl)ethoxy]benzo[g]quinoline-3-carbonitrile]
GI50 [1]: 170 nM | melting point: 195 to 196 °C

SMILES: N#Cc1cnc2c(sc3ccccc32)c1Nc1ccc(Oc2ccccc2)cc1 [Example 69, 4-(4-Phenoxyphenylamino)benzo[4,5]thieno[3,2-b]pyridine-3-carbonitrile]
Mek-Erk IC50 [2]: 3000 nM | melting point: 230 to 233 °C

SMILES: N#Cc1cnc2c(c1Nc1ccc(Oc3ccccc3)cc1)C=C1N=CN=C1C2 [Example 44, 8-(4-Phenoxyanilino)imidazo[4,5-g]quinoline-7-carbonitrile]
Mek-Erk IC50 [2]: 30 nM | melting point: > 270 °C

SMILES: COc1cc(Nc2c(C#N)cnc3cc4cc(OCCCN5CCOCC5)c(OC)cc4cc23)c(Cl)cc1Cl [Example 157, 4-(2,4-Dichloro-5-methoxyphenylamino)-7-methoxy-8-(3-morpholin-4-yl-propoxy)benzo[g]quinoline-3-carbonitrile]
GI50 [1]: 38 nM | melting point: 205 to 208 °C

SMILES: COc1cc(Nc2c(C#N)cnc3cc4cc(OCCn5ccnn5)c(OC)cc4cc23)c(Cl)cc1Cl [Example 159, 4-(2,4-Dichloro-5-methoxyphenylamino)-7-methoxy-8-(2-[1,2,3]triazol-1-yl-ethoxy)benzo[g]quinoline-3-carbonitrile]
GI50 [1]: 73 nM | melting point: 245 °C (dec.)

SMILES: COc1cc(Nc2c(C#N)cnc3nc4cc(OCCN5CCOCC5)c(OC)cc4cc23)c(Cl)cc1Cl [Example 173, 4-(2,4-Dichloro-5-methoxyanilino)-7-methoxy-8-[2-(4-morpholinyl)ethoxy]benzo[b][1,8]naphthyridine-3-carbonitrile]
GI50 [1]: 3740 nM | melting point: 242 to 244 °C (dec.)

SMILES: N#Cc1cnc2cc3ccccc3cc2c1Nc1ccc(Oc2ccccc2)cc1 [Example 3, 4-(4-Phenoxyanilino)benzo[g]quinoline-3-carbonitrile]
Mek-Erk IC50 [2]: 200 nM | melting point: 250 to 251 °C

SMILES: COc1cc(Nc2c(C#N)cnc3cc4cc(OCCn5nccn5)c(OC)cc4cc23)c(Cl)cc1Cl [Example 158, 4-(2,4-Dichloro-5-methoxyphenylamino)-7-methoxy-8-(2-[1,2,3]triazol-2-yl-ethoxy)benzo[g]quinoline-3-carbonitrile]
GI50 [1]: 67 nM

SMILES: COc1cc(Nc2c(C#N)cnc3c2C=C2N=CN=C2C3)cc(OC)c1OC [Example 42, 8-(3,4,5-Trimethoxyanilino)imidazo[4,5-g]quinoline-7-carbonitrile]
Src TF prolif % Inh ([1]; @ dose 0.22 μM): 50% | melting point: > 260 °C

SMILES: COc1cc(Nc2c(C#N)cnc3nc4cc(OCCCl)c(OC)cc4cc23)c(Cl)cc1Cl [Example 172, 8-(2-Chloroethoxy)-4-(2,4-dichloro-5-methoxyanilino)-7-methoxybenzo[b][1,8]naphthyridine-3-carbonitrile]
GI50 [1]: 1870 nM | melting point: 227 to 230 °C (dec.)

SMILES: COc1cc(Nc2c(C#N)cnc3nc4cc(OC)c(OC)cc4cc23)c(Cl)cc1Cl [Example 165, 4-(2,4-Dichloro-5-methoxyanilino)-7,8-dimethoxybenzo[b][1,8]naphthyridine-3-carbonitrile]
GI50 [1]: > 10000 nM | melting point: 297 °C (dec.)

SMILES: COc1cc(Nc2c(C#N)cnc3cc4cc(OCCCCl)c(OC)cc4cc23)c(Cl)cc1Cl [Example 156, 8-(3-Chloropropoxy)-4-(2,4-dichloro-5-methoxyphenylamino)-7-methoxybenzo[g]quinoline-3-carbonitrile]
melting point: 220 to 223 °C

SMILES: N#Cc1cnc2c(sc3ccccc32)c1Oc1ccc(Cl)cc1F [Example 71, 4-(4-Chloro-2-fluorophenoxy)benzo[4,5]thieno[3,2-b]pyridine-3-carbonitrile]
melting point: 174 to 175 °C
